Results taken from paper PMC10175918 (Communications Biology, 2023).
Read-outs that look alike come from different tables or passages of the source.

Experiments:
Test in all cases: TGFα-shedding assay-based GPCR screening with chimeric Gα subunit proteins
Assay type in all cases: cell-based
[1] = target: T1, 348 GPCRs (Homo sapiens, UniProt P32246); details: 10µM, Favipiravir 100μM
T1 construct: expressed in transfected cells; host or cells: HEK293A
T1 sequence (P32246 1-355): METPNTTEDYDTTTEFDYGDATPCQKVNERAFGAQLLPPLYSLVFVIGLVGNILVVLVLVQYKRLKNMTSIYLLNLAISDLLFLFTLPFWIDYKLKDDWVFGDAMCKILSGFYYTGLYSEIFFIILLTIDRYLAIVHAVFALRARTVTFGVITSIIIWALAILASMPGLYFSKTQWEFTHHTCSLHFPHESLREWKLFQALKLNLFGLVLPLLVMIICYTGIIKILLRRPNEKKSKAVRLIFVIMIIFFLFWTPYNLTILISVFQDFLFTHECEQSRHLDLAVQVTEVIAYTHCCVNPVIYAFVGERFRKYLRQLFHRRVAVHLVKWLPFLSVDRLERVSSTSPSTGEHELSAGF

[2] = target: 348 GPCRs (Homo sapiens, UniProt P35462); details: 10µM, Favipiravir 100μM
Sequence of 348 GPCRs (Homo sapiens, UniProt P35462) (P35462 whole entry): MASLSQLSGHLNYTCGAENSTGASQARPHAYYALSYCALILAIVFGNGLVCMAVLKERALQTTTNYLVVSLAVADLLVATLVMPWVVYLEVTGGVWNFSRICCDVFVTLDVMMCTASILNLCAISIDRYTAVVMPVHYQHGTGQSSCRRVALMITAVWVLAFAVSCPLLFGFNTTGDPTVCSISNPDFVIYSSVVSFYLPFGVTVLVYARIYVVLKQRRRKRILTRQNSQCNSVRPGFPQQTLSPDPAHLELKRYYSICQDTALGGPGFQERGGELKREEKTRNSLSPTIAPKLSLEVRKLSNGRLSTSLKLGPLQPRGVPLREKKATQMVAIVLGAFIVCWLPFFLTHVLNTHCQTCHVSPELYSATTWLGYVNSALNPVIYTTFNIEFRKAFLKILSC

[3] = target: T2, 348 GPCRs (Homo sapiens, UniProt P48960)
T2 construct: expressed in transfected cells; host or cells: HEK293A
T2 sequence (P48960 21-835): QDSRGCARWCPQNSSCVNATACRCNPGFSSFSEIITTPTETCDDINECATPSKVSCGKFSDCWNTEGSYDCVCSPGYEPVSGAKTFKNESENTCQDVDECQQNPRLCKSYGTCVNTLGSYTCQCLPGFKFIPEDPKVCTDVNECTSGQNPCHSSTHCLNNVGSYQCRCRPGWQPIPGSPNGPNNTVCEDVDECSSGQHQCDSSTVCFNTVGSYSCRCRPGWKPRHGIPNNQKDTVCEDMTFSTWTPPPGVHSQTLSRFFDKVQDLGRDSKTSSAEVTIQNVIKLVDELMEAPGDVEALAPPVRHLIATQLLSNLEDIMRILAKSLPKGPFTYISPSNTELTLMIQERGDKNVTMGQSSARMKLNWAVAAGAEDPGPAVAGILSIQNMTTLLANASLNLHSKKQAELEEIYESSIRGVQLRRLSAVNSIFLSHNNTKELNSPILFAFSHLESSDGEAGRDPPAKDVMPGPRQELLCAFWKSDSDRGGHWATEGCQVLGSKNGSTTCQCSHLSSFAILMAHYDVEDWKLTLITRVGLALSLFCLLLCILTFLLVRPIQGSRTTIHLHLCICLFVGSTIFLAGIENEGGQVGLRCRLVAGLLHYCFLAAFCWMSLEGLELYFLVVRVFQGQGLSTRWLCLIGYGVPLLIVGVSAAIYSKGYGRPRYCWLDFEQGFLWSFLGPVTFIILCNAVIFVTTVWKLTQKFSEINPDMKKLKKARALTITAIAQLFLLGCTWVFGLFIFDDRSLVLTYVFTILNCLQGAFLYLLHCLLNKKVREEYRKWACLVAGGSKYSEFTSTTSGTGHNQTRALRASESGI

[4] = target: T3, 348 GPCRs (Homo sapiens, UniProt Q14330); details: GPR18 (G protein-coupled receptor 18); 10µM, Favipiravir 100μM
T3 construct: expressed in transfected cells; host or cells: HEK293A
T3 sequence (Q14330 1-331): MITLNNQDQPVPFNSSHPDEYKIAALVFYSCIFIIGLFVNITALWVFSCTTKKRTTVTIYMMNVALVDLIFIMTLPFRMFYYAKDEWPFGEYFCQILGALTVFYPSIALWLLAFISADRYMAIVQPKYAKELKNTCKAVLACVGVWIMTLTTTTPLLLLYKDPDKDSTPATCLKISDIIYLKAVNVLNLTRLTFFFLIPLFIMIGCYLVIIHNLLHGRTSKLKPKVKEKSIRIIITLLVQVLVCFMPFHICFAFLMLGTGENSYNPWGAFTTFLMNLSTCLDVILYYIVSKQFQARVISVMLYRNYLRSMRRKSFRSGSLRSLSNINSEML

[5] = target: T4, 348 GPCRs (Homo sapiens, UniProt Q9NZD1); details: 10µM, Favipiravir 100μM
T4 construct: expressed in transfected cells; host or cells: HEK293A
T4 sequence (Q9NZD1 whole entry): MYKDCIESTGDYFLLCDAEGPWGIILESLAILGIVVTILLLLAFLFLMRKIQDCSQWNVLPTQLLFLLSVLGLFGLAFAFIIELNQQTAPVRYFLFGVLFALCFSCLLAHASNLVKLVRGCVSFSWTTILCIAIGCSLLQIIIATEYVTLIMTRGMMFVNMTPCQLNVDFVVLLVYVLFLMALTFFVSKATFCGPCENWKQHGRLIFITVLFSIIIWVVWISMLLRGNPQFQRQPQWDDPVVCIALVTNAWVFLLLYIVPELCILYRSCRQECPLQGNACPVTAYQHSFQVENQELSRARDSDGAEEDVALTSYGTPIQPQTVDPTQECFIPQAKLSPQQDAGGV

[6] = target: T5, 348 GPCRs (Homo sapiens, UniProt Q9Y3P9); details: 10µM, Favipiravir 100μM
T5 construct: expressed in transfected cells; host or cells: HEK293A
T5 sequence (Q9Y3P9 whole entry): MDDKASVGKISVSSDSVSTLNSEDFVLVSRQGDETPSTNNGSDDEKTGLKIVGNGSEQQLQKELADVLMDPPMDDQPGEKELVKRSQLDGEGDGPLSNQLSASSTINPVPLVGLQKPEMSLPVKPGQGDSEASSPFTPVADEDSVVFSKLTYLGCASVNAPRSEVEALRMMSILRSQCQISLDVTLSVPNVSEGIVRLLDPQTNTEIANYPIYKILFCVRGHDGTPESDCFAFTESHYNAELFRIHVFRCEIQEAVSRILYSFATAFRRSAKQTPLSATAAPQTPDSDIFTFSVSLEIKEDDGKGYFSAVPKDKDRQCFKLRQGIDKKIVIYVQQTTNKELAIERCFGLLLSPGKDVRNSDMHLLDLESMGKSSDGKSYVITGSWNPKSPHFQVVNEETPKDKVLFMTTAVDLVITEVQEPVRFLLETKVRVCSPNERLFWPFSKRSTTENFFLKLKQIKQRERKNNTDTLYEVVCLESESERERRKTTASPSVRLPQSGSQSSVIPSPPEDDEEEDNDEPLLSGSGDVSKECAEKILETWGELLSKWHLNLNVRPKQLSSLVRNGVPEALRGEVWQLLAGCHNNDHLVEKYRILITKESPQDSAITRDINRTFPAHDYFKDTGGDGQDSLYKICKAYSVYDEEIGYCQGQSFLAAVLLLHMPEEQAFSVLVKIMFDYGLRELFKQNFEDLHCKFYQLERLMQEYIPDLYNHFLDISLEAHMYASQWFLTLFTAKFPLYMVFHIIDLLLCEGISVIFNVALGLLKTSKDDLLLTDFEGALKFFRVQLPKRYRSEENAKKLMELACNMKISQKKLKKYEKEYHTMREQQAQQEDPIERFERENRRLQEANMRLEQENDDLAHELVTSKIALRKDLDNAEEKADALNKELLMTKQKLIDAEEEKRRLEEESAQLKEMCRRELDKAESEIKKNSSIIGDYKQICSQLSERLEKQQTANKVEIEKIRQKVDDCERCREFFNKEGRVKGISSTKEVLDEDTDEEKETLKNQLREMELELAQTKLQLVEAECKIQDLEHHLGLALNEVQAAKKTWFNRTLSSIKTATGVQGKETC

[7] = target: T6, 348 GPCRs (Homo sapiens, UniProt Q9Y5Y4); details: 10µM, Favipiravir 100μM
T6 construct: expressed in transfected cells; host or cells: HEK293A
T6 sequence (Q9Y5Y4 1-395): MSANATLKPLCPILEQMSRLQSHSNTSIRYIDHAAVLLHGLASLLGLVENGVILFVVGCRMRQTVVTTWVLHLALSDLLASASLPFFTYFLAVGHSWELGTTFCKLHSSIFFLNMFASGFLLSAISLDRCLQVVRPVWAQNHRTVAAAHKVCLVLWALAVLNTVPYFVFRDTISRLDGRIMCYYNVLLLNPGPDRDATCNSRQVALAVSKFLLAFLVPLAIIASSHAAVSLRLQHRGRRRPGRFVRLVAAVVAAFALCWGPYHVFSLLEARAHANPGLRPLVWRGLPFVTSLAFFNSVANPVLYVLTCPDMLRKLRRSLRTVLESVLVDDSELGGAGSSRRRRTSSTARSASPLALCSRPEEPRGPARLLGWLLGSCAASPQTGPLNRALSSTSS

[8] = CCR1 (chemokine (C-C motif) receptor 1), read-out: % GPCR activation compared to TPA
[9] = D3 (dopamine receptor D3), read-out: % GPCR activation compared to TPA
[10] = GPCR CD97 (adhesion G protein-coupled receptor E5), read-out: % GPCR activation compared to TPA
[11] = GPRC5D (G protein-coupled receptor class C group 5 member D), read-out: % GPCR activation compared to TPA
[12] = RABGAP1 (Rab GTPase-activating protein 1), read-out: % GPCR activation compared to TPA
[13] = DP2 (prostaglandin D2 receptor 2), read-out: % GPCR activation compared to TPA
[14] = read-out: % GPCR activation compared to TPA, CCR1 (chemokine (C-C motif) receptor 1)
[15] = read-out: % GPCR activation compared to TPA, D3 (dopamine receptor D3)
[16] = read-out: % GPCR activation compared to TPA, GPCR CD97 (adhesion G protein-coupled receptor E5)
[17] = read-out: % GPCR activation compared to TPA, GPRC5D (G protein-coupled receptor class C group 5 member D)
[18] = read-out: % GPCR activation compared to TPA, RABGAP1 (Rab GTPase-activating protein 1)
[19] = read-out: % GPCR activation compared to TPA, DP2 (prostaglandin D2 receptor 2)

| activation at 100 µM [1, 8] | activation at 100 µM [2, 9] | activation at 10 µM [3, 10] | % GPCR activation compared to TPA [4] | activation at 10 µM [5, 11] | activation at 100 µM [6, 12] | activation at 100 µM [7, 13] | activation at 100 µM ([3]; GPCR CD97 (adhesion G protein-coupled receptor E5), 100μM, read-out: % GPCR activation compared to TPA) | SMILES | activation at 100 µM [1, 14] | activation at 100 µM [2, 15] | activation at 10 µM [3, 16] | activation at 10 µM [5, 17] | activation at 100 µM [6, 18] | activation at 100 µM [7, 19] |
| --- | --- | --- | --- | --- | --- | --- | --- | --- | --- | --- | --- | --- | --- | --- |
| 4.02% | 4.08% | -3.9% | 2.081% | -1.93% | -1.83% | -0.745% | – | N#C[C@@]1(c2ccc3c(N)ncnn23)O[C@H](CO)[C@@H](O)[C@H]1O [GS441524] | – | – | – | – | – | – |
| 5.15% | 7.52% | – | -1% | -2.09% | -1.48% | 0.119% | -3.34% | NC(=O)c1nc(F)cnc1O [favipiravir, 6-fluoro-3-hydroxy-2-pyrazinecarboxamide] | – | – | – | – | – | – |
| -1.8% | 0.0207% | -0.34% | -5.385% | -0.168% | -0.481% | 0.374% | – | CC(C)C(=O)OC[C@H]1O[C@@H](n2ccc(NO)nc2=O)[C@H](O)[C@@H]1O [molnupiravir] | – | – | – | – | – | – |

| SMILES | activation at 100 µM [1, 8] | activation at 100 µM [2, 9] | activation at 10 µM [3, 10] | % GPCR activation compared to TPA [4] | activation at 10 µM [5, 11] | activation at 100 µM [6, 12] | activation at 100 µM [7, 13] | activation at 100 µM ([3]; GPCR CD97 (adhesion G protein-coupled receptor E5), 100μM, read-out: % GPCR activation compared to TPA) | activation at 100 µM [1, 14] | activation at 100 µM [2, 15] | activation at 10 µM [3, 16] | activation at 10 µM [5, 17] | activation at 100 µM [6, 18] | activation at 100 µM [7, 19] |
| --- | --- | --- | --- | --- | --- | --- | --- | --- | --- | --- | --- | --- | --- | --- |
| CCC(CC)COC(=O)[C@H](C)N[P@](=O)(OC[C@H]1O[C@@](C#N)(c2ccc3c(N)ncnn23)[C@H](O)[C@@H]1O)Oc1ccccc1 [remdesivir] | – | – | – | 1.118% | – | – | – | – | 2.29% | 7.67% | 1.2% | -0.473% | -0.577% | 1.87% |
| CC(C)OC(=O)[C@H](C)N[P@](=O)(OC[C@H]1O[C@@H](n2ccc(=O)[nH]c2=O)[C@](C)(F)[C@@H]1O)Oc1ccccc1 [sofosbuvir] | – | – | – | -3.042% | – | – | – | – | -1.9% | -1.16% | -1.88% | 0.492% | -1.28% | 0.675% |
